Results reported in patent publication US8858917B2, “Methods for limiting spread of pulmonary infections” (priority 2002, dated 2014).
Numbered stars: 1 amine (or outer) side, 2 acyl side, 3 side chain; on linkers, the order of the positions; unused ones are H or OH. Bridge positions count the residues as written; N and C are the ends. Square brackets hold non-standard residues; d marks the D form. Peptide text beside a SMILES is read from it. X1 = CC(C)CCCCCCCCC[C@H](CC(=O)[*:1])O[*:2]

What was measured:
NIH 3T3 fibroblasts = conditions: 30% ethanol in 10% FBS DMEM for 10 seconds
[1] = tested on: viruses susceptible to its action; conditions: medium containing 5% fetal calf serum (FCS); cited from earlier work
HSV-1 and HSV-2 strains = conditions: cultured cells; cited from earlier work
HIV-1 (strain NL4-3) = conditions: pretreatment of virus; cited from earlier work
[2] = Dispersion / precipitation in ethanol; assay type: physicochemical; conditions: room temperature
Protocol: DLS can be used to measure the size and size distribution of the ethanol solutions. A suitable apparatus is an ALV DLS/SLS-5000 spectrometer/goniometer (ALV-Laser GmbH, Langen, Germany). The light source for the experiments is an Argon Ion laser of wavelength 514.5 nm (Coherent, Calif.). Light scattered by the sample is detected at an angle of 90° from the transmitted beam, where the effects of reflection are minimized. The sample cell is placed in a toluene bath maintained at a temperature of 25° C.

CCO [ethanol]
cell death after exposure (CMFDA staining) (NIH 3T3 fibroblasts): insufficient to cause cell death

CC(C)CCCCCCCCC[C@@H]1CC(=O)N[C@@H](CCC(=O)O)C(=O)N[C@@H](CC(C)C)C(=O)N[C@H](CC(C)C)C(=O)N[C@@H](C(C)C)C(=O)N[C@@H](CC(=O)O)C(=O)N[C@H](CC(C)C)C(=O)N[C@@H](CC(C)C)C(=O)O1 [surfactin] (EL[dL]VD[dL]L; linker N-C via X1)
concentration at which active [1]: 25 µM

CCCCCCCCCCCCOS(=O)(=O)[O-].[Na+] [SLS, sodium lauryl sulfate]
inhibition of infectivities of various HSV-1 and HSV-2 strains (HSV-1 and HSV-2 strains): potent inhibitors | infectivity of HIV-1 to 1G5 cells after pretreatment (HIV-1 (strain NL4-3)): reduced its infectivity

CCCCCCCCCCCCCCCC(=O)OC[C@H](COP(=O)([O-])OCC[N+](C)(C)C)OC(=O)CCCCCCCCCCCCCCC [DPPC, dipalmitoyl phosphatidyl choline]
concentration successfully dispersed in ethanol before sedimentation of aggregates [2]: up to 100 mg/mL
